Tests used:
bedstraw = test: Test B pre/postemergence bedstraw; format: in vivo, Galium aparine
How it was run: (§1)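 Herbicidal effect was estimated by eye on a ten-point control scale after plants spent twelve to sixteen days in a greenhouse following soil or foliar treatment. Foliar sprays targeted plants at one to four leaves; all doses were formulated in a non-phytotoxic solvent with surfactant.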

blackgrass = test: Test B pre/postemergence blackgrass; format: in vivo, Alopecurus myosuroides
How it was run: as §1

giant foxtail = test: Test B pre/postemergence giant foxtail; format: in vivo, Setaria faberii
How it was run: as §1

morningglory = test: Test B pre/postemergence morningglory; format: in vivo, Ipomoea hederacea
How it was run: as §1

pigweed = test: Test B pre/postemergence pigweed; format: in vivo, Amaranthus retroflexus
How it was run: as §1

rape = test: Test B pre/postemergence rape; format: in vivo, Brassica napus
How it was run: as §1

soybean = test: Test B pre/postemergence soybean; format: in vivo, Glycine max
How it was run: as §1

sugar beet = test: Test B pre/postemergence sugar beet; format: in vivo, Beta vulgaris
How it was run: as §1

velvetleaf = test: Test B pre/postemergence velvetleaf; format: in vivo, Abutilon theophrasti
How it was run: as §1

wheat = test: Test B pre/postemergence wheat; format: in vivo, Triticum aestivum
How it was run: as §1

wild oat = test: Test B pre/postemergence wild oat; format: in vivo, Avena fatua
How it was run: as §1

purple nutsedge = test: Test B pre/postemergence purple nutsedge; format: in vivo, Cyperus rotundus
How it was run: as §1

rice = test: Test B flood test rice; format: in vivo, Oryza sativa
How it was run: (§2)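 Read-out is a visual response score from 0 (no effect) to 10 (complete control), assigned by comparison with untreated controls. Treatment was applied at the 2-leaf stage, and plants stayed in the greenhouse for twelve to sixteen days before scoring.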

smallflower flatsedge = test: Test B flood test smallflower flatsedge; format: in vivo, Cyperus difformis
How it was run: as §2

duck salad = test: Test B flood test duck salad; format: in vivo, Heteranthera limosa
How it was run: as §2

bamyardgrass = test: Test B flood test barnyardgrass; format: in vivo, Echinochloa crus-galli
How it was run: as §2

[1] = Postemergence, Rate 62 g/ha, scale 0 to 10, 0 is no effect, 10 is complete control
[2] = Postemergence, Rate 250 g/ha, scale 0 to 10, 0 no effect, 10 complete control
[3] = Preemergence, Rate 62 g/ha, scale 0 to 10 (0 no effect, 10 complete control)
[4] = Preemergence, Rate 125 g/ha, scale 0 to 10 (0 no effect, 10 complete control)
[5] = Preemergence, Rate 250 g/ha, scale of 0 to 10 where 0 is no effect and 10 is complete control
[6] = Preemergence, Rate 500 g/ha, scale 0 (no effect) to 10 (complete control)
[7] = Rate 125 g/ha, Postemergence, scale 0 to 10, 0 no effect, 10 complete control
[8] = Rate 500 g/ha, Postemergence, scale 0 to 10, 0 no effect, 10 complete control
[9] = Rate 125 g/ha, Postemergence section (flood test species), scale 0 to 10, 0 no effect, 10 complete control
[10] = Rate 500 g/ha, listed under Postemergence (flood test species), scale 0 to 10, 0 no effect, 10 complete control
[11] = flood test, listed under Postemergence, Rate 250 g/ha, scale 0 to 10, 0 no effect, 10 complete control

For `Cc1cccc(C(C)C)c1-n1c(=O)on(C(=O)N(c2ccc(F)cc2)C(C)C)c1=O` [Compound 65], the “Bedstraw plant response rating” value (bedstraw; [1]) was 0, the “Bedstraw plant response rating” value (bedstraw; [2]) was 0 and the “Bedstraw plant response rating” value (bedstraw; [3]) was 0. The “Plant response rating, Bedstraw” value (bedstraw; [4]) was 0, the “Plant response rating, Bedstraw” value (bedstraw; [5]) was 2 and the “Bedstraw plant response rating” value (bedstraw; [6]) was 3. The “Bedstraw plant response rating” value (bedstraw; [7]) was 0, the “Bedstraw plant response rating” value (bedstraw; [8]) was 0 and the “Blackgrass plant response rating” value (blackgrass; [1]) was 0. The “Blackgrass plant response rating” value (blackgrass; [2]) was 0, the “Blackgrass plant response rating” value (blackgrass; [3]) was 0 and the “Plant response rating, Blackgrass” value (blackgrass; [4]) was 0. The “Plant response rating, Blackgrass” value (blackgrass; [5]) was 0, the “Blackgrass plant response rating” value (blackgrass; [6]) was 0 and the “Blackgrass plant response rating” value (blackgrass; [7]) was 0. The “Blackgrass plant response rating” value (blackgrass; [8]) was 0, the “Giant foxtail plant response rating” value (giant foxtail; [1]) was 0 and the “Giant foxtail plant response rating” value (giant foxtail; [2]) was 0. For the same compound, the “Giant foxtail plant response rating” value (giant foxtail; [3]) was 3, the “Plant response rating, Giant foxtail” value (giant foxtail; [4]) was 4 and the “Plant response rating, Giant foxtail” value (giant foxtail; [5]) was 4. The “Giant foxtail plant response rating” value (giant foxtail; [6]) was 9, the “Giant foxtail plant response rating” value (giant foxtail; [7]) was 0 and the “Giant foxtail plant response rating” value (giant foxtail; [8]) was 0. For the same compound, the “Morningglory plant response rating” value (morningglory; [1]) was 0, the “Morningglory plant response rating” value (morningglory; [2]) was 1 and the “Morningglory plant response rating” value (morningglory; [3]) was 0. The “Plant response rating, Morningglory” value (morningglory; [4]) was 0, the “Plant response rating, Morningglory” value (morningglory; [5]) was 0 and the “Morningglory plant response rating” value (morningglory; [6]) was 0. The “Morningglory plant response rating” value (morningglory; [7]) was 1, the “Morningglory plant response rating” value (morningglory; [8]) was 2 and the “Redroot pigweed plant response rating” value (pigweed; [1]) was 0. For the same compound, the “Redroot pigweed plant response rating” value (pigweed; [2]) was 0, the “Redroot pigweed plant response rating” value (pigweed; [3]) was 0 and the “Plant response rating, Redroot pigweed” value (pigweed; [4]) was 0. For the same compound, the “Plant response rating, Redroot pigweed” value (pigweed; [5]) was 0, the “Redroot pigweed plant response rating” value (pigweed; [6]) was 3 and the “Redroot pigweed plant response rating” value (pigweed; [7]) was 0. For the same compound, the “Redroot pigweed plant response rating” value (pigweed; [8]) was 0, the “Rape plant response rating” value (rape; [1]) was 0 and the “Rape plant response rating” value (rape; [2]) was 0. The “Rape plant response rating” value (rape; [3]) was 0, the “Plant response rating, Rape” value (rape; [4]) was 0 and the “Plant response rating, Rape” value (rape; [5]) was 0. For the same compound, the “Rape plant response rating” value (rape; [6]) was 3, the “Rape plant response rating” value (rape; [7]) was 0 and the “Rape plant response rating” value (rape; [8]) was 0. The “Soybean plant response rating” value (soybean; [1]) was 1, the “Soybean plant response rating” value (soybean; [2]) was 1 and the “Soybean plant response rating” value (soybean; [3]) was 0. For the same compound, the “Plant response rating, Soybean” value (soybean; [4]) was 0, the “Plant response rating, Soybean” value (soybean; [5]) was 0 and the “Soybean plant response rating” value (soybean; [6]) was 0. The “Soybean plant response rating” value (soybean; [7]) was 1, the “Soybean plant response rating” value (soybean; [8]) was 1 and the “Sugarbeets plant response rating” value (sugar beet; [1]) was 0. The “Sugarbeets plant response rating” value (sugar beet; [2]) was 0, the “Sugarbeets plant response rating” value (sugar beet; [3]) was 0 and the “Plant response rating, Sugarbeets” value (sugar beet; [4]) was 0. The “Plant response rating, Sugarbeets” value (sugar beet; [5]) was 0, the “Sugarbeets plant response rating” value (sugar beet; [6]) was 0 and the “Sugarbeets plant response rating” value (sugar beet; [7]) was 0. For the same compound, the “Sugarbeets plant response rating” value (sugar beet; [8]) was 0, the “Velvetleaf plant response rating” value (velvetleaf; [1]) was 3 and the “Velvetleaf plant response rating” value (velvetleaf; [2]) was 3. For the same compound, the “Velvetleaf plant response rating” value (velvetleaf; [3]) was 0, the “Plant response rating, Velvetleaf” value (velvetleaf; [4]) was 0 and the “Plant response rating, Velvetleaf” value (velvetleaf; [5]) was 0. The “Velvetleaf plant response rating” value (velvetleaf; [6]) was 0, the “Velvetleaf plant response rating” value (velvetleaf; [7]) was 3 and the “Velvetleaf plant response rating” value (velvetleaf; [8]) was 4. For the same compound, the “Wheat plant response rating” value (wheat; [1]) was 0, the “Wheat plant response rating” value (wheat; [2]) was 0 and the “Wheat plant response rating” value (wheat; [3]) was 0. The “Plant response rating, Wheat” value (wheat; [4]) was 0, the “Plant response rating, Wheat” value (wheat; [5]) was 0 and the “Wheat plant response rating” value (wheat; [6]) was 0. For the same compound, the “Wheat plant response rating” value (wheat; [7]) was 0, the “Wheat plant response rating” value (wheat; [8]) was 0 and the “Wild oats plant response rating” value (wild oat; [1]) was 0. For the same compound, the “Wild oats plant response rating” value (wild oat; [2]) was 0, the “Wild oats plant response rating” value (wild oat; [3]) was 0 and the “Plant response rating, Wild oats” value (wild oat; [4]) was 0. The “Plant response rating, Wild oats” value (wild oat; [5]) was 0, the “Wild oats plant response rating” value (wild oat; [6]) was 0 and the “Wild oats plant response rating” value (wild oat; [7]) was 0. The “Wild oats plant response rating” value (wild oat; [8]) was 0, the “Nutsedge plant response rating” value (purple nutsedge; [1]) was 0 and the “Nutsedge plant response rating” value (purple nutsedge; [2]) was 0. For the same compound, the “Nutsedge plant response rating” value (purple nutsedge; [3]) was 0, the “Plant response rating, Nutsedge” value (purple nutsedge; [4]) was 0 and the “Plant response rating, Nutsedge” value (purple nutsedge; [5]) was 2. The “Nutsedge plant response rating” value (purple nutsedge; [6]) was 3, the “Nutsedge plant response rating” value (purple nutsedge; [7]) was 0 and the “Nutsedge plant response rating” value (purple nutsedge; [8]) was 0. The “Rice plant response rating” value (rice; [1]) was 0, the “Rice plant response rating” value (rice; [9]) was 0 and the “Rice plant response rating” value (rice; [10]) was 3. For the same compound, the “Rice plant response rating” value (rice; [11]) was 0, the “S. Flatsedge plant response rating” value (smallflower flatsedge; [1]) was 0 and the “S. Flatsedge plant response rating” value (smallflower flatsedge; [9]) was 0. For the same compound, the “S. Flatsedge plant response rating” value (smallflower flatsedge; [10]) was 0, the “S. Flatsedge plant response rating” value (smallflower flatsedge; [11]) was 0 and the “Ducksalad plant response rating” value (duck salad; [1]) was 0. The “Ducksalad plant response rating” value (duck salad; [9]) was 0, the “Ducksalad plant response rating” value (duck salad; [10]) was 0 and the “Ducksalad plant response rating” value (duck salad; [11]) was 0. For the same compound, the “Barnyardgrass plant response rating” value (bamyardgrass; [1]) was 0, the “Barnyardgrass plant response rating” value (bamyardgrass; [9]) was 0 and the “Barnyardgrass plant response rating” value (bamyardgrass; [10]) was 2. The “Barnyardgrass plant response rating” value (bamyardgrass; [11]) was 0.
